# Where a name gives a salt, the structure may show the parent alone. Activity calls are given as the source filed them. Rule as the data show it, for most assays here: actives have a measured EC50 and inactives only a lower limit.
# Legend:
# [1] = Luminescence Cell-Based Dose Confirmation HTS to Identify Activators of 5'UTR Stem-Loop Driven Alpha-Synuclein mRNA Translation in H4 Neuroglioblastoma Cells. [Related pubchem assays: 1829 (Project Summary), 1814 (Primary HTS)]; format: functional
# H4 = assay: Luminescence Cell-Based Dose Response HTS to Identify Activators of 5'UTR Stem-Loop Driven Prion Protein mRNA Translation in H4 Neuroglioblastoma Cells. [Related pubchem assays: 1829 (Project Summary), 1814 (Primary HTS)]; format: functional; settings: Homo sapiens
# [2] = Luminescence Cell-Based Dose Response HTS to Identify Activators of Luciferase Translation or Activity in H4 […] Cells. [Related pubchem assays: 1829 (Project Summary), 1814 (Primary HTS)]; format: functional
# [3] = molecular target: T1, Heat shock factor protein 1 (Mus musculus, UniProt P38532); assay: decrease of HSF1-responsive luciferase luminescence – cell-based, NIH3T3, dose retest, confirmation (AID 2382); format: functional;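 also: NIH3T3 fibroblasts with HSF1-driven luciferase reporter stressed by proteasome inhibitor MG132; luminescence from HSF1-driven luciferase expression after 8 hours of MG132 stress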
# T1 sequence (P38532 whole entry): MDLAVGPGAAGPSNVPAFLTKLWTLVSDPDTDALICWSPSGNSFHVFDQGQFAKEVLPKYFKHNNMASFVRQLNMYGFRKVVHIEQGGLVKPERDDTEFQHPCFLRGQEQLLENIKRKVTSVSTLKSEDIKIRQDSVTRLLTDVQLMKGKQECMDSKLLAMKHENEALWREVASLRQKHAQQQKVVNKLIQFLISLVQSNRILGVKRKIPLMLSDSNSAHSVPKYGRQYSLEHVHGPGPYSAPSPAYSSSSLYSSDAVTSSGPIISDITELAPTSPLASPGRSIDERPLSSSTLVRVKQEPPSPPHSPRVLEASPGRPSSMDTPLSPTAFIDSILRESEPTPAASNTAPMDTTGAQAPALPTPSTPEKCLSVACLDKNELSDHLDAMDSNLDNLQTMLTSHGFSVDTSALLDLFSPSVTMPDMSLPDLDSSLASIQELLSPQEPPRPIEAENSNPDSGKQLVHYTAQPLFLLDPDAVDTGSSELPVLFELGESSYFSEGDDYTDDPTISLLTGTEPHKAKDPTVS
# [4] = molecular target: Luciferin 4-monooxygenase (Photinus pyralis, UniProt P08659); assay: inhibition of purified Photinus pyralis luciferase – biochemical, luminescence, dose response (AID 1891)
# [5] = Luminescence Cell-Based Dose Confirmation HTS to Identify Inhibitors of Platelet Dense Granule Release. [Related pubchem assays: 1663 (Primary HTS), 1678 (Summary of Project)]; format: functional
# Vero = assay: cells; format: functional; settings: Chlorocebus sabaeus
# Cytochrome P450 3A4 = Cytochrome P450 3A4 (Homo sapiens, UniProt P08684);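 also: CYP3A4 tested as one member of a cytochrome P450 panel screen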
# INS1 = assay: INS-1E survival protection against cytokine death – cell-based, luminescence, retest, dose response (AID 449756); format: functional; settings: Rattus norvegicus;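 also: cell death triggered by IL-1 beta plus TNF-alpha plus IFN-gamma mixture; protective hits raise ATP signal compared with cytokine alone wells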
# H9c2 = assay: cells; format: functional, cell-based; settings: Rattus norvegicus, H9c2, Myocardium;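 also: confirmatory concentration-response retest of ultra-high-throughput screening hits for modulation of myocardial damage; cell death induced by hydrogen peroxide oxidative stress; compound pretreatment for 60 min then peroxide exposure for 2 h; potency is for protecting the cells against peroxide damage rather than for killing them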
# Streptococcus = assay: GAS UMAA2166 growth inhibition – luminescence, BacTiterGlo, counter-screen for streptokinase expression inhibitor project, dose response (AID 1915); format: functional, organism-based;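 also: potency for reduction of bacterial viability or growth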
# Streptokinase A = molecular target: T2, Streptokinase A (Streptococcus pyogenes serotype M1, UniProt P10520); assay: viability-normalized secreted streptokinase activity reduction – plasminogen activation absorbance, OD405, dose response (AID 1914); format: functional, Streptococcus pyogenes M1 GAS;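 also: secreted streptokinase activity via plasminogen activation per viability signal from cell pellet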
# T2 sequence (P10520 whole entry): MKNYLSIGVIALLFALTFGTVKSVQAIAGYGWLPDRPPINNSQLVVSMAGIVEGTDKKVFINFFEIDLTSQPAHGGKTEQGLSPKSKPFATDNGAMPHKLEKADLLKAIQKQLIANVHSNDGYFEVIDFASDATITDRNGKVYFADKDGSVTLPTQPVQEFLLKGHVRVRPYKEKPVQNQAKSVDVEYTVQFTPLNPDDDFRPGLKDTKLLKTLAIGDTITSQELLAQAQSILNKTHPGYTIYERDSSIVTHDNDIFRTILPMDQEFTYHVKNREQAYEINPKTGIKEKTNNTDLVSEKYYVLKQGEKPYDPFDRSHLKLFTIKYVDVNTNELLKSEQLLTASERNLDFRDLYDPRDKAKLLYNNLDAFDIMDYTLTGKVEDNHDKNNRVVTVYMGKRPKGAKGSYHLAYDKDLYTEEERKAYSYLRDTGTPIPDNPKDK
# [6] = tested on: Streptococcus sp. 'group A'; assay: Streptococcus pyogenes SK(-)GAS viability under kanamycin – luminescence, BacTiterGlo, confirmation, counter-screen for streptokinase expression inhibitor project, dose response (AID 1900); format: functional, organism-based
# [7] = molecular target: T3, Microphthalmia-associated transcription factor (Homo sapiens, UniProt O75030); assay: reducers of TRPM1 reporter luminescence, concentration series – cell-based, SK-MEL-5, cherry-picked, set 3, MITF inhibitor project, dose response (AID 493073); format: functional;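 also: SK-MEL-5 melanoma cells with luciferase driven by the MITF target TRPM1 promoter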
# T3 sequence (O75030 whole entry): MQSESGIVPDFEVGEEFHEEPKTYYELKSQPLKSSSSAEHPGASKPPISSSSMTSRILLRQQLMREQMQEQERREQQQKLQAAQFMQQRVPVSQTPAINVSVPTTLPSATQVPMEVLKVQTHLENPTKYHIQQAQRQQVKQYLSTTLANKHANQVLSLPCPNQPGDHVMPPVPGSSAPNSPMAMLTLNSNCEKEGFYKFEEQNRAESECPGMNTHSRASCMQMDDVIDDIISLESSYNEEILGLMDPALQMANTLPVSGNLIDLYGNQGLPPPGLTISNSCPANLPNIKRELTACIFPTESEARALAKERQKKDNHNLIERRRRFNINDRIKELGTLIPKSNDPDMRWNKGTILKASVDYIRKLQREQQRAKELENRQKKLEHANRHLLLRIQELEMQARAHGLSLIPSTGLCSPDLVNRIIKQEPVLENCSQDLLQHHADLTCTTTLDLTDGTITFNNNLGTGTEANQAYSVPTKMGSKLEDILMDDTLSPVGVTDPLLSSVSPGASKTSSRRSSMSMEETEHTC
# Cytochrome P450 2D6 = Cytochrome P450 2D6 (Homo sapiens, UniProt P10635);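 also: CYP2D6 member of a cytochrome P450 panel assay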
# [8] = molecular target: T1, Heat shock factor protein 1; assay: enhancement of HSF1-driven luciferase signal – cell-based, NIH3T3, luminescence, dose retest, confirmation (AID 435004); format: functional;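 also: stress induced by proteasome inhibitor MG132 added 30 min after compound; luciferase reporter driven by HSF1 response element in NIH3T3 cells; actives raise luminescence as potentiators of the MG132 stress response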
# Cytochrome P450 2C9 = Cytochrome P450 2C9 (Homo sapiens, UniProt P11712)
# [9] = alpha-synuclein stem-loop luciferase translation blockers – H4 neuroglioma cells, luminescence, confirmation (AID 1988); format: functional, cell-based
# [10] = Luminescence Cell-Based Dose Response HTS to Identify Inhibitors of 5'UTR Stem-Loop Driven Prion Protein mRNA Translation in H4 Neuroglioblastoma Cells. [Related pubchem assays: 1827 (Project Summary), 1813 (Primary HTS)]; format: functional
# Chain of Luciferin 4-monooxygenase (P08659 whole entry): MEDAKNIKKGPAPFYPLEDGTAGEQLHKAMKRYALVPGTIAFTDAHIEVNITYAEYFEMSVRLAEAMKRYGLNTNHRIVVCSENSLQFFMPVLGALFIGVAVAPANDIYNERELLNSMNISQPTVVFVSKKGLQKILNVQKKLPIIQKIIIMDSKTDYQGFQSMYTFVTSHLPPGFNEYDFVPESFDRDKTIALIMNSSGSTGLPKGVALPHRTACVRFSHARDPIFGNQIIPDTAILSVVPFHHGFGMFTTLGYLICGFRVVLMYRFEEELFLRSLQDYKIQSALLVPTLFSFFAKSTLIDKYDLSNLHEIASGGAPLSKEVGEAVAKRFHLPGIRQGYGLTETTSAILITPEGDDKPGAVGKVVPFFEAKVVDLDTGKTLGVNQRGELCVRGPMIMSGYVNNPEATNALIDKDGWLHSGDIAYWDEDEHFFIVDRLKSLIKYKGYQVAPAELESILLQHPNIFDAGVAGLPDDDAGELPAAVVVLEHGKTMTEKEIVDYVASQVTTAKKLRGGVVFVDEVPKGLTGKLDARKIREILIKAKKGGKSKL
# Chain of Cytochrome P450 3A4 (P08684 whole entry): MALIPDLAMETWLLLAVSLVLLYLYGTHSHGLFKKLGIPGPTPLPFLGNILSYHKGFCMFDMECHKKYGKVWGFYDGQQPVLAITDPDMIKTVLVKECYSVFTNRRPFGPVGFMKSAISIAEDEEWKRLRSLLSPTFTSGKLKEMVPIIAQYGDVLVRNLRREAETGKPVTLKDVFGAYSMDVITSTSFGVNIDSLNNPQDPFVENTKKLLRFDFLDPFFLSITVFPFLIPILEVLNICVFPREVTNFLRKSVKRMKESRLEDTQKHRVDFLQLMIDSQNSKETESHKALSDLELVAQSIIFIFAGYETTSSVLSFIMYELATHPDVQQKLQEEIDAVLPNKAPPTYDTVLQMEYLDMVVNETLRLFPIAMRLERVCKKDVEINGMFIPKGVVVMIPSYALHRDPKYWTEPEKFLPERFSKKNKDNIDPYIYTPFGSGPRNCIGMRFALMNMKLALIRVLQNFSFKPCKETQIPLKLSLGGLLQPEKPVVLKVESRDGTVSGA
# Chain of Cytochrome P450 2C9 (P11712 whole entry): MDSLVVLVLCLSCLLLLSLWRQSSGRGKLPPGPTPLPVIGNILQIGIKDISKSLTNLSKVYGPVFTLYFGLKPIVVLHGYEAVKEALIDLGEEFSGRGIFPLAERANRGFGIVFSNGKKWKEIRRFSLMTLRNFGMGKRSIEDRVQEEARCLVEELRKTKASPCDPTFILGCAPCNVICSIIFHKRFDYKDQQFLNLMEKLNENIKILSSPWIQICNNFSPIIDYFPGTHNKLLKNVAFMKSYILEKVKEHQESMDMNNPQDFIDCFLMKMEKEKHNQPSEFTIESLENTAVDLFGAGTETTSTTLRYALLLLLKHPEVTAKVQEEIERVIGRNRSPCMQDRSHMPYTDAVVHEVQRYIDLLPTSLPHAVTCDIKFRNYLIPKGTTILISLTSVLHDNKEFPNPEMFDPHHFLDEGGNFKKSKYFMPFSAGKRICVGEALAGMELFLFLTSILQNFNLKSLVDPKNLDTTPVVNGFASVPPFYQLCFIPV
# Chain of Cytochrome P450 2D6 (P10635 whole entry): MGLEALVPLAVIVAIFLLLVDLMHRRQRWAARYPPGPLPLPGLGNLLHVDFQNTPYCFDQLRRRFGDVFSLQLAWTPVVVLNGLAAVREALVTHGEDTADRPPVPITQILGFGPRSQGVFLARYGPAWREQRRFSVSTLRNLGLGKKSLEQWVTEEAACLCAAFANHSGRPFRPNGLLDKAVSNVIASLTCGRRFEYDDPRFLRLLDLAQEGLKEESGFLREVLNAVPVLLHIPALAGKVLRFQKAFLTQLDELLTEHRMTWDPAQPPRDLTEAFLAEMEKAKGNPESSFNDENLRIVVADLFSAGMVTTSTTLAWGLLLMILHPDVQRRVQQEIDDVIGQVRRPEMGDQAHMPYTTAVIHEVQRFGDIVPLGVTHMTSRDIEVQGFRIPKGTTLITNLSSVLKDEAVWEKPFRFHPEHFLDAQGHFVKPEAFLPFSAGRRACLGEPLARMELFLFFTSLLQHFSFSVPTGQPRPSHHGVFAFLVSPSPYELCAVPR
smiles,measurement,setting,value
CC1=Nc2cc(C(=O)NCC3CCCO3)ccc2Sc2ccc(Br)cc21 (centres undefined),EC50,[1],> 120 µM (not active)
same,EC50,H4,17.8 µM (active)
same,EC50,[2],> 120 µM (not active)
same,EC50,[3],> 195 µM (not active)
CCc1ccc(S(=O)(=O)NCCc2cn3ccsc3n2)s1,EC50,[4],> 112 µM (not active)
same,EC50,[5],> 112 µM (not active)
COc1ccc(NC(=O)c2cc(S(=O)(=O)N3CCc4ccccc43)cn2C)cc1OC,EC50,[4],> 112 µM (not active)
same,EC50,[5],> 112 µM (not active)
Cc1ccc(C(=O)N/C(=C\c2ccc(-c3cccc([N+](=O)[O-])c3)o2)C(=O)NCCCN2CCOCC2)cc1,CC50,Vero,> 25 µM (active)
CN1CCN(CC(=O)N(C)c2nc(-c3ccccc3)cs2)CC1,EC50,[1],1.12 µM (active)
same,EC50,[2],1.22 µM (active)
CCOC(=O)c1cc(-c2ccccc2)nn1Cc1cc(CC)no1,EC50,[1],12.4 µM (active)
same,EC50,H4,89.1 µM (active)
same,EC50,[2],7.3 µM (active)
O=C(c1ccco1)N1CCC2(CCCN(Cc3ccccc3)C2)CC1,AC50,Cytochrome P450 3A4,12.6 µM (inconclusive)
CCn1c(=O)cc(N2CCN(Cc3ccccc3)CC2)[nH]c1=O,EC50,[4],> 112 µM (not active)
same,EC50,[5],> 112 µM (not active)
CCOC(=O)C(C)/C(C)=N/NC(=O)c1cc2ccccc2cc1O (centres undefined),AC50,INS1,14.8 µM (active)
CN1N=C(C(=O)N2CCc3c([nH]c4ccccc34)C2c2ccccc2Cl)CCC1=O (centres undefined),EC50,[1],13.2 µM (active)
same,EC50,H4,9.56 µM (active)
same,EC50,[2],10.8 µM (active)
COc1ccc(N(Cc2cc3cc(OC)ccc3nc2O)C(=O)c2cccnc2)cc1,IC50,H9c2,> 79 µM (inactive)
COC(=O)c1ccccc1NC(=O)c1ccc2nccnc2c1,IC50,H9c2,13.3 µM (active)
O=C1CN2Cc3c(ccc(Cl)c3Cl)N=C2N1 [ANAGRELIDE HYDROCHLORIDE],EC50,[4],> 112 µM (not active)
same,EC50,[5],0.722 µM (active)
COCCn1ccc2c(OCC(=O)Nc3ccccc3OC)cccc2c1=O,IC50,H9c2,> 79 µM (inactive)
CCOC(=O)CC1(C)NC(C(=O)O)C(C)(C)S1 (centres undefined),CC50,Vero,> 25 µM (active)
COc1ccc(/C=C/C(=O)NC(=S)NNC(=O)[C@H]2C[C@@H]2c2ccccc2)cc1OC,CC50,Vero,> 25 µM (active)
same,EC50,Streptococcus,20.4 µM (active)
same,EC50,Streptokinase A,> 150 µM (not active)
same,EC50,[6],0.57 µM (active)
CCCN1CCC(=O)N([C@H](CSc2ccc(C)cc2)c2ccccc2)CC1,EC50,[1],8.36 µM (active)
same,EC50,H4,7.04 µM (active)
same,EC50,[2],5.58 µM (active)
c1ccc(C[n+]2cccc3c4ccccc4ccc32)cc1,AC50,[7],3.41 µM (active)
O=C1NC(c2cccs2)Nc2ccccc21 (centres undefined),IC50,H9c2,18.2 µM (active)
CCOC(=O)CCCc1c[nH]c2ccccc12,AC50,Cytochrome P450 3A4,31.6 µM (inconclusive)
COc1ccccc1-c1cc(NC=O)c2ncc(-c3cccc(C(C)=O)c3)n2c1,IC50,H9c2,10 µM (active)
CC(OC(=O)Cn1[nH]c(=O)c2ccccc2c1=O)C(=O)Nc1cccc(Cl)c1 (centres undefined),IC50,H9c2,> 79 µM (inactive)
COc1ccc(OC)c(C(=O)/C=C/c2cccnc2)c1,CC50,Vero,17 µM (active)
Oc1nc2cc3c(cc2cc1CN(CCc1ccccc1)Cc1nnnn1C1CCCC1)OCCO3,EC50,[4],> 112 µM (not active)
same,EC50,[5],> 112 µM (not active)
O=C(Nc1ccc(N2CCOCC2)cc1)c1nc2ccccc2s1,EC50,[4],16.4 µM (active)
same,EC50,[5],5.93 µM (active)
O=C(Cn1ncc(N2CCOCC2)c(Br)c1=O)c1ccc(Cl)cc1,EC50,[1],> 120 µM (not active)
same,EC50,H4,17 µM (active)
same,EC50,[2],7.93 µM (active)
COc1cc2cc(CN(CCO)S(=O)(=O)c3ccccc3Cl)c(O)nc2cc1OC,EC50,[4],> 112 µM (not active)
same,EC50,[5],> 112 µM (not active)
COc1ccccc1-c1nc(Nc2ccncc2)c2ccccc2n1,AC50,Cytochrome P450 2D6,25.1 µM (inconclusive)
same,AC50,Cytochrome P450 3A4,3.16 µM (inconclusive)
COc1ccc(N2CCN(CC(=O)c3ccc(O)cc3O)CC2)cc1,EC50,[4],> 112 µM (not active)
same,EC50,[5],> 112 µM (not active)
CCOc1cccc2c1OC(c1cc(OC)c(OC)c(OC)c1)N1N=C(c3ccc(C)o3)CC21 (centres undefined),EC50,[1],32 µM (active)
same,EC50,H4,8.82 µM (active)
same,EC50,[2],28.3 µM (active)
COCCn1c(=O)cnc2cnc(Oc3ccc(OC)cc3)nc21,AC50,Cytochrome P450 3A4,15.8 µM (inconclusive)
c1ccc(C(c2ccccc2)N2CCN(Cc3nnnn3C3CCCC3)CC2)cc1,EC50,[4],> 112 µM (not active)
same,EC50,[5],> 112 µM (not active)
Nc1ncnc(N(c2ccccc2)C2CCCCC2)c1[N+](=O)[O-],AC50,Cytochrome P450 3A4,6.31 µM (inconclusive)
C/C(=N\NC(=S)Nc1ccc(F)cc1)C1CC1,AC50,Cytochrome P450 3A4,14.1 µM (inconclusive)
CCN1CCc2c(sc(NC(=O)c3ccc(S(=O)(=O)N4CCCCCC4)cc3)c2C(=O)NC)C1,AC50,[7],16.6 µM (active)
Cc1ccccc1C(=O)NCCOc1ccccc1Cl,EC50,[8],25.5 µM (active)
O=C(NCC1CCCO1)c1onc(CSc2ccccc2F)c1C(=O)O (centres undefined),AC50,Cytochrome P450 2C9,6.31 µM (inconclusive)
same,AC50,Cytochrome P450 3A4,25.1 µM (inconclusive)
CN1/C(=C\C(=O)C[n+]2cccc(Br)c2)C(C)(C)c2ccccc21,AC50,INS1,5.62 µM (active)
O=C1NC(=S)NC(=O)C1=Cc1c[nH]c2ccccc12,CC50,Vero,> 25 µM (active)
Oc1c(/C=N/c2cccc(C(F)(F)F)c2)cnn1-c1cccc(Cl)n1,AC50,Cytochrome P450 2C9,10 µM (inconclusive)
same,AC50,Cytochrome P450 3A4,25.1 µM (inconclusive)
COc1cccc(-c2nn3c(-c4ccco4)nnc3s2)c1,IC50,H9c2,> 79 µM (inactive)
COc1cc2cc3c4cc(OC)c(OC)cc4cc[n+]3c(C)c2cc1OC,AC50,Cytochrome P450 3A4,10 µM (inconclusive)
COc1ccc(CCNC(=O)C(=O)NCC2CCCN2S(=O)(=O)c2ccccc2)cc1OC (centres undefined),IC50,H9c2,> 79 µM (inactive)
Cc1nn(C)c(C)c1/C=C(/C(=O)C(C)(C)C)n1cncn1,EC50,[9],> 120 µM (not active)
same,EC50,[10],> 120 µM (not active)

# Source: ChEMBL document CHEMBL1201862, “PubChem BioAssay data set” (2004)
